Patent US20220144809A1, “COMPOUNDS AND METHODS FOR THE TARGETED DEGRADATION OF ANDROGEN RECEPTOR AND ASSOCIATED METHODS OF USE” (Arvinas Operations, Inc., priority 2020, published 2022)

Tested on: Androgen Receptor (AR)
Experiment: Androgen Receptor ELISA assay (AR degradation in LNCaP and/or VCaP cells)
Type: cell-based
Details: degradation of AR, 5 hours incubation, R1881 in media
Description: Assay for Testing AR Degradation Driven by Compounds of the Present Disclosure.
Androgen Receptor ELISA Assay. Compounds were evaluated in the following assay in LNCaP and/or VCaP cells utilizing similar protocols. The protocols used with VCaP cells are described below. The androgen receptor ELISA assay was performed using PathScan AR Sandwich ELISA (Cell Signaling Catalog#12850) according to the following assay steps.
VCaP cells were seeded at 40,000 cells/well at a volume of 100 μL/well in VCaP assay medium [Phenol red free RPMI (Gibco Cat#11835-030); 5% Charcoal Stripped (Dextran treated) FBS (Omega Scientific, Cat#FB-04); 1% penstrep (Life Technologies, Gibco Cat#: 10378-016)] in Corning 3904 plates. The cells were grown for a minimum of 3 days.
First, cells were dosed with compounds diluted in […]—in a polypropylene plate avoiding the use of outer columns according to the following protocol: (1)(i) 1000× stock plate in DMSO was made; (ii) 20 mM stock diluted 1/6.7 with DMSO (5 μL+28.3 μL DMSO)=3 mM into row H; (iii) serial dilutions in ½ log doses (10 μL of bifunctional compound+20 μL DMSO) was performed from row H towards row B with row A being reserved for DMSO; (iv) 7 doses total (final concentration in this 1000× plate will be 3 mM, 1 mM, 333 μM, 111 μM, etc). (2)(i) A 10× stock plate in media was made; (ii) 2.5 μL of the 1000× stock was trasnferred to a new 10× stock plate (use 12 channel pipet, start at A (DMSO control) work thru H. When 247.5 μL of media was added to this plate, it served as a 10× stock; (iii) made media+1 nM R1881 for making 10× stock plate; (iv) added 247.5 μL of media with 1 nM R1881 to each well of the 10× stock plate, mix.
Then 22 μL of 10× stock was added to cells and incubated for 5 hours. 1× Cell Signaling Cell lysis buffer was made (Catalogue #9803; comes with the kit) to have […], and was kept on ice. Media was aspirated, and 100 μL 1× cell lysis buffer/well was added. The cells were placed on a shaker located in a cold room for 10 minutes and shaken at speed 7. The lysate mixture was mix and 20 μL transferred to 100 μl of Diluent in ELISA plate (0.15 μg/ml-0.075 μg/ml). The lysate-diluent mixture was store at 4° C. overnight on a shaker located in a cold room at speed 5 (gentle swirl).
The lysate-diluent mixture was shaken for 30 minutes at 37° C. The mouse AR antibody, anti-mouse antibody, TMB, and STOP solution were allowed to come to room temperature. The 1×ELISA buffer included in kit was made and loaded in reservoir. Media from the plate was discarded, the ELISA plate was tapped hard on paper towel, and washed 4×200 μl ELISA wash buffer using a plate washer for the first three washes and an eight channel aspirator for the fourth wash to more thoroughly aspirate the solution.
Next, 100 μL/well of mouse AR detection Ab was added; the plate was covered and shaken at 37° C. for 1 hour; media was discarded from the plates, the plates tapped on a paper towel and washed four times with 200 μL ELISA wash buffer with a plate washer for the first three washes and an eight channel aspirator for the fourth wash; 100 μL/well of anti-mouse—HRP conjugated Ab (comes with the kit) was added; the plates wascover and shaken at 37° C. for 30 minutes; the TMB reagent was allowed to come to room temperature; the media from the plate was discarded, the plates tapped on paper towel, and washed four times with 200 μL ELISA wash buffer with a plate washer for the first three washes and an eight channel aspirator for the fourth wash; plates were tapped on paper towl; 100 μL TMB was added to each well and the plate shaken for 2 minutes—while watching color. STOP solution (100 μL) was added when light blue color developed. The plates were shake and read at 450 nm.
Data was analyzed and plotted using GraphPad Prism software. Exemplary compounds of Table 1 were assayed and the data shown below in Table 2. […]

| DC50 | SMILES | Dmax Code |
| --- | --- | --- |
| < 1 nM | N#Cc1ncc(N2C(=O)C3(CCC3)N(c3ccc(CCCCCN4CCN(c5ccc6c(c5)C(=O)N(C5CCC(=O)NC5=O)C6=O)CC4)cc3)C2=S)cc1Cl (stereo not shown) [Compound 1, 3-chloro-5-(5-(4-(5-(4-(2-(2,6-dioxopiperidin-3-yl)-1,3-dioxoisoindolin-5-yl)piperazin-1-yl)pentyl)phenyl)-8-oxo-6-thioxo-5,7-diazaspiro[3.4]octan-7-yl)picolinonitrile] | A (A≥70) |
| < 1 nM | N#Cc1ncc(N2C(=O)C3(CCC3)N(c3ccc(N4CCC(CN5CCN(c6ccc7c(c6)C(=O)N(C6CCC(=O)NC6=O)C7)CC5)CC4)cc3)C2=S)cc1Cl (stereo not shown) [Compound 2, 3-chloro-5-(5-(4-(4-((4-(2-(2,6-dioxopiperidin-3-yl)-3-oxoisoindolin-5-yl)piperazin-1-yl)methyl)piperidin-1-yl)phenyl)-8-oxo-6-thioxo-5,7-diazaspiro[3.4]octan-7-yl)picolinonitrile] | A (A≥70) |
| 1 to 10 nM | COc1cc(N2C(=O)C3(CCC3)N(c3ccc(N4CCC(CN5CCN(c6ccc7c(c6)C(=O)N(C6CCC(=O)NC6=O)C7=O)CC5)CC4)c(F)c3)C2=S)ccc1C#N (stereo not shown) [Compound 6, 4-(5-(4-(4-((4-(2-(2,6-dioxopiperidin-3-yl)-1,3-dioxoisoindolin-5-yl)piperazin-1-yl)methyl)piperidin-1-yl)-3-fluorophenyl)-8-oxo-6-thioxo-5,7-diazaspiro[3.4]octan-7-yl)-2-methoxybenzonitrile] | A (A≥70) |
| 1 to 10 nM | COc1cc(N2C(=O)C3(CCC3)N(c3ccc(N4CCC(CN5CCN(c6ccc7c(c6)C(=O)N(C6CCC(=O)NC6=O)C7=O)CC5)CC4)cc3)C2=S)ccc1C#N (stereo not shown) [Compound 7, 4-(5-(4-(4-((4-(2-(2,6-dioxopiperidin-3-yl)-1,3-dioxoisoindolin-5-yl)piperazin-1-yl)methyl)piperidin-1-yl)phenyl)-8-oxo-6-thioxo-5,7-diazaspiro[3.4]octan-7-yl)-2-methoxybenzonitrile] | B (50≤B<70) |
| 1 to 10 nM | N#Cc1ncc(N2C(=O)C3(CCC3)N(c3ccc(OC4CCN(CC5CCN(c6ccc7c(c6)C(=O)N(C6CCC(=O)NC6=O)C7=O)CC5)CC4)c(F)c3)C2=S)cc1Cl (stereo not shown) [Compound 10, 3-chloro-5-(5-(4-((1-((1-(2-(2,6-dioxopiperidin-3-yl)-1,3-dioxoisoindolin-5-yl)piperidin-4-yl)methyl)piperidin-4-yl)oxy)-3-fluorophenyl)-8-oxo-6-thioxo-5,7-diazaspiro[3.4]octan-7-yl)picolinonitrile] | A (A≥70) |
| 1 to 10 nM | N#Cc1ncc(N2C(=O)C3(CCC3)N(c3ccc(C4CCN(CC5CCN(c6ccc7c(c6)C(=O)N(C6CCC(=O)NC6=O)C7)CC5)CC4)cc3)C2=S)cc1Cl (stereo not shown) [Compound 11] | C (C<50) |
| 1 to 10 nM | N#Cc1ncc(N2C(=O)C3(CCC3)N(c3ccc(OC4CCN(CC5CCN(c6ccc7c(c6)C(=O)N(C6CCC(=O)NC6=O)C7=O)CC5)CC4)nc3)C2=S)cc1C(F)(F)F (stereo not shown) [Compound 12, 5-(5-(6-((1-((1-(2-(2,6-dioxopiperidin-3-yl)-1,3-dioxoisoindolin-5-yl)piperidin-4-yl)methyl)piperidin-4-yl)oxy)pyridin-3-yl)-8-oxo-6-thioxo-5,7-diazaspiro[3.4]octan-7-yl)-3-(trifluoromethyl)picolinonitrile] | B (50≤B<70) |
| 1 to 10 nM | CC(C)N(CC1CCN(c2ccc(N3C(=S)N(c4cnc(C#N)c(C(F)(F)F)c4)C(=O)C34CCC4)cn2)CC1)[C@H]1C[C@H](Oc2ccc3c(c2)C(=O)N(C2CCC(=O)NC2=O)C3=O)C1 (stereo partly shown) [Compound 13, 5-(5-(6-(4-((((1r,3r)-3-((2-(2,6-dioxopiperidin-3-yl)-1,3-dioxoisoindolin-5-yl)oxy)cyclobutyl)(isopropyl)amino)methyl)piperidin-1-yl)pyridin-3-yl)-8-oxo-6-thioxo-5,7-diazaspiro[3.4]octan-7-yl)-3-(trifluoromethyl)picolinonitrile] | C (C<50) |

| SMILES | DC50 | Dmax Code |
| --- | --- | --- |
| CC1(C)C(=O)N(c2ccc(C#N)c(C(F)(F)F)c2)C(=S)N1Cc1ccc(N2CCC(CN3CCN(c4ccc5c(c4)C(=O)N(C4CCC(=O)NC4=O)C5=O)CC3)CC2)nc1 (stereo not shown) [Compound 3, 4-(3-((6-(4-((4-(2-(2,6-dioxopiperidin-3-yl)-1,3-dioxoisoindolin-5-yl)piperazin-1-yl)methyl)piperidin-1-yl)pyridin-3-yl)methyl)-4,4-dimethyl-5-oxo-2-thioxoimidazolidin-1-yl)-2-(trifluoromethyl)benzonitrile] | < 1 nM | A (A≥70) |
| CCN(CC1CCN(c2ccc(CN3C(=S)N(c4ccc(C#N)c(C(F)(F)F)c4)C(=O)C3(C)C)cn2)CC1)[C@H]1C[C@H](Oc2ccc3c(c2)C(=O)N(C2CCC(=O)NC2=O)C3=O)C1 (stereo partly shown) [Compound 4, 4-(3-((6-(4-((((1r,3r)-3-((2-(2,6-dioxopiperidin-3-yl)-1,3-dioxoisoindolin-5-yl)oxy)cyclobutyl)(ethyl)amino)methyl)piperidin-1-yl)pyridin-3-yl)methyl)-4,4-dimethyl-5-oxo-2-thioxoimidazolidin-1-yl)-2-(trifluoromethyl)benzonitrile] | < 1 nM | C (C<50) |
| N#Cc1ccc(N2C(=O)C3(CCC3)N(c3ccc(N4CCC(CN5CCN(c6ccc7c(c6)C(=O)N(C6CCC(=O)NC6=O)C7=O)CC5)CC4)c(F)c3)C2=S)cc1Cl (stereo not shown) [Compound 5, 2-chloro-4-(5-(4-(4-((4-(2-(2,6-dioxopiperidin-3-yl)-1,3-dioxoisoindolin-5-yl)piperazin-1-yl)methyl)piperidin-1-yl)-3-fluorophenyl)-8-oxo-6-thioxo-5,7-diazaspiro[3.4]octan-7-yl)benzonitrile] | < 1 nM | A (A≥70) |
| CC(C)N(C[C@H]1C[C@H](Oc2ccc(N3C(=S)N(c4cnc(C#N)c(C(F)(F)F)c4)C(=O)C34CCC4)cn2)C1)[C@H]1C[C@H](Oc2ccc3c(c2)C(=O)N(C2CCC(=O)NC2=O)C3=O)C1 (stereo partly drawn) [Compound 8, 5-(5-(6-((1R,3r)-3-((((1r,3R)-3-((2-(2,6-dioxopiperidin-3-yl)-1,3-dioxoisoindolin-5-yl)oxy)cyclobutyl)(isopropyl)amino)methyl)cyclobutoxy)pyridin-3-yl)-8-oxo-6-thioxo-5,7-diazaspiro[3.4]octan-7-yl)-3-(trifluoromethyl)picolinonitrile] | 1 to 10 nM | C (C<50) |
| N#Cc1ccc(N2C(=O)C3(CCC3)N(c3ccc(N4CCC(CN5CCN(c6ccc7c(c6)C(=O)N(C6CCC(=O)NC6=O)C7=O)CC5)CC4)cc3)C2=S)cc1Cl (stereo not shown) [Compound 9, 2-chloro-4-(5-(4-(4-((4-(2-(2,6-dioxopiperidin-3-yl)-1,3-dioxoisoindolin-5-yl)piperazin-1-yl)methyl)piperidin-1-yl)phenyl)-8-oxo-6-thioxo-5,7-diazaspiro[3.4]octan-7-yl)benzonitrile] | 1 to 10 nM | A (A≥70) |
| CC1(C)C(=O)N(c2ccc(C#N)c(C(F)(F)F)c2)C(=S)N1Cc1ccc(OCCN2CCC(CN3CCN(c4ccc5c(c4)C(=O)N(C4CCC(=O)NC4=O)C5=O)CC3)CC2)nc1 (stereo not shown) [Compound 14, 4-(3-((6-(2-(4-((4-(2-(2,6-dioxopiperidin-3-yl)-1,3-dioxoisoindolin-5-yl)piperazin-1-yl)methyl)piperidin-1-yl)ethoxy)pyridin-3-yl)methyl)-4,4-dimethyl-5-oxo-2-thioxoimidazolidin-1-yl)-2-(trifluoromethyl)benzonitrile] | 1 to 10 nM | B (50≤B<70) |
